Laboratory results reported in PubChem BioAssay (NCI).
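Values below derive from 48-hour exposures of cells grown in 96-well plates, with endpoints linearly interpolated between the two concentrations bracketing the appropriate inhibition level. GI50 marks 50% less growth. TGI: total growth inhibition.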

What follows are compounds tested on NCI-H226 lung (assay: growth of human tumour cells (NCI), 48 h).

SMILES | TGI | GI50
CC(C)CC1[C@@H](OCc2ccccc2)COS(=O)N1Cc1ccccc1 (some centres not stated) | > 100 µM | 
Nc1nc(Br)nc2c1ncn2C1CC(O)C(CO)O1 (configuration not stated) | > 100 µM | 25.2 µM
Cc1sc2nc(NCCc3c[nH]c4ccc(Cl)cc34)[nH]c(=O)c2c1C | 17.4 µM | 3.18 µM

What follows are compounds tested on EKVX NSCLC (assay: growth of human tumour cells (NCI), 48 h).

SMILES | GI50 | TGI
Fc1ccc(Nc2cc(-n3nnc4ccccc43)nc3ccccc23)cc1 | 31.8 µM | > 82.6 µM
CC(C)CC1[C@@H](OCc2ccccc2)COS(=O)N1Cc1ccccc1 (some centres not stated) |  | > 100 µM
Nc1nc(Br)nc2c1ncn2C1CC(O)C(CO)O1 (configuration not stated) | > 100 µM | > 100 µM
Cc1sc2nc(NCCc3c[nH]c4ccc(Cl)cc34)[nH]c(=O)c2c1C | 2.76 µM | 

Each compound was assayed on SK-MEL-28 melanoma (assay: growth of human tumour cells (NCI), 48 h).

SMILES | GI50 | TGI
Fc1ccc(Nc2cc(-n3nnc4ccccc43)nc3ccccc23)cc1 | > 56.2 µM | > 100 µM
CC(C)CC1[C@@H](OCc2ccccc2)COS(=O)N1Cc1ccccc1 (some centres not stated) |  | > 100 µM
Nc1nc(Br)nc2c1ncn2C1CC(O)C(CO)O1 (configuration not stated) | > 100 µM | > 100 µM
Cc1sc2nc(NCCc3c[nH]c4ccc(Cl)cc34)[nH]c(=O)c2c1C | 4.08 µM | 15.7 µM

The compounds below were run on NCI-H460 lung (assay: growth of human tumour cells (NCI), 48 h).

SMILES | GI50 | TGI
Fc1ccc(Nc2cc(-n3nnc4ccccc43)nc3ccccc23)cc1 | 26.2 µM | > 100 µM
Nc1nc(Br)nc2c1ncn2C1CC(O)C(CO)O1 (configuration not stated) | 61 µM | > 100 µM
Cc1sc2nc(NCCc3c[nH]c4ccc(Cl)cc34)[nH]c(=O)c2c1C | 2.54 µM | 7.95 µM

The compounds below were run on M14 melanoma (assay: growth of human tumour cells (NCI), 48 h).

SMILES | GI50 | TGI
Fc1ccc(Nc2cc(-n3nnc4ccccc43)nc3ccccc23)cc1 | > 81.7 µM | > 100 µM
CC(C)CC1[C@@H](OCc2ccccc2)COS(=O)N1Cc1ccccc1 (some centres not stated) |  | > 100 µM
Nc1nc(Br)nc2c1ncn2C1CC(O)C(CO)O1 (configuration not stated) | 1.1 µM | 8.56 µM
Cc1sc2nc(NCCc3c[nH]c4ccc(Cl)cc34)[nH]c(=O)c2c1C | 2.4 µM | 9.49 µM

The compounds below were run on NCI-H23 lung (assay: growth of human tumour cells (NCI), 48 h).

SMILES | GI50 | TGI
Fc1ccc(Nc2cc(-n3nnc4ccccc43)nc3ccccc23)cc1 | 49.2 µM | > 100 µM
CC(C)CC1[C@@H](OCc2ccccc2)COS(=O)N1Cc1ccccc1 (some centres not stated) |  | > 100 µM
Nc1nc(Br)nc2c1ncn2C1CC(O)C(CO)O1 (configuration not stated) | 1.08 µM | > 100 µM
Cc1sc2nc(NCCc3c[nH]c4ccc(Cl)cc34)[nH]c(=O)c2c1C | 2.39 µM | 6.22 µM

These compounds were tested on SNB-19 CNS (assay: growth of human tumour cells (NCI), 48 h).

SMILES | TGI | GI50
Fc1ccc(Nc2cc(-n3nnc4ccccc43)nc3ccccc23)cc1 | > 100 µM | 
CC(C)CC1[C@@H](OCc2ccccc2)COS(=O)N1Cc1ccccc1 (some centres not stated) | > 100 µM | 
Nc1nc(Br)nc2c1ncn2C1CC(O)C(CO)O1 (configuration not stated) | > 56.9 µM | 
Cc1sc2nc(NCCc3c[nH]c4ccc(Cl)cc34)[nH]c(=O)c2c1C | 13.2 µM | 3.54 µM

These compounds were tested on A549 NSCLC (assay: growth of human tumour cells (NCI), 48 h).

SMILES | GI50 | TGI
Fc1ccc(Nc2cc(-n3nnc4ccccc43)nc3ccccc23)cc1 | 64.4 µM | > 100 µM
CC(C)CC1[C@@H](OCc2ccccc2)COS(=O)N1Cc1ccccc1 (some centres not stated) |  | > 100 µM
Nc1nc(Br)nc2c1ncn2C1CC(O)C(CO)O1 (configuration not stated) | 5.34 µM | > 100 µM
Cc1sc2nc(NCCc3c[nH]c4ccc(Cl)cc34)[nH]c(=O)c2c1C | 2.13 µM | 5.09 µM

What follows are compounds tested on LOX IMVI melanoma (assay: growth of human tumour cells (NCI), 48 h).

SMILES | GI50 | TGI
Fc1ccc(Nc2cc(-n3nnc4ccccc43)nc3ccccc23)cc1 | 37.7 µM | > 100 µM
CC(C)CC1[C@@H](OCc2ccccc2)COS(=O)N1Cc1ccccc1 (some centres not stated) |  | > 100 µM
Nc1nc(Br)nc2c1ncn2C1CC(O)C(CO)O1 (configuration not stated) | 29.8 µM | > 100 µM
Cc1sc2nc(NCCc3c[nH]c4ccc(Cl)cc34)[nH]c(=O)c2c1C | 1.87 µM | 3.68 µM

These compounds were tested on OVCAR-3 ovarian (assay: growth of human tumour cells (NCI), 48 h).

SMILES | GI50 | TGI
Fc1ccc(Nc2cc(-n3nnc4ccccc43)nc3ccccc23)cc1 | 28.4 µM | > 100 µM
CC(C)CC1[C@@H](OCc2ccccc2)COS(=O)N1Cc1ccccc1 (some centres not stated) |  | > 100 µM
Nc1nc(Br)nc2c1ncn2C1CC(O)C(CO)O1 (configuration not stated) | > 100 µM | > 100 µM
Cc1sc2nc(NCCc3c[nH]c4ccc(Cl)cc34)[nH]c(=O)c2c1C | 3.26 µM | 12.7 µM

What follows are compounds tested on CCRF-CEM leukemia (assay: growth of human tumour cells (NCI), 48 h).

SMILES | GI50 | TGI
Fc1ccc(Nc2cc(-n3nnc4ccccc43)nc3ccccc23)cc1 | > 100 µM | > 100 µM
CC(C)CC1[C@@H](OCc2ccccc2)COS(=O)N1Cc1ccccc1 (some centres not stated) |  | > 100 µM
Nc1nc(Br)nc2c1ncn2C1CC(O)C(CO)O1 (configuration not stated) | 0.204 µM | > 100 µM
Cc1sc2nc(NCCc3c[nH]c4ccc(Cl)cc34)[nH]c(=O)c2c1C | 2.63 µM | 14.2 µM

The compounds below were run on HT29 colon (assay: growth of human tumour cells (NCI), 48 h).

SMILES | GI50 | TGI
Fc1ccc(Nc2cc(-n3nnc4ccccc43)nc3ccccc23)cc1 | 43.9 µM | > 100 µM
CC(C)CC1[C@@H](OCc2ccccc2)COS(=O)N1Cc1ccccc1 (some centres not stated) |  | 40.2 µM
Nc1nc(Br)nc2c1ncn2C1CC(O)C(CO)O1 (configuration not stated) | 47.7 µM | > 100 µM
Cc1sc2nc(NCCc3c[nH]c4ccc(Cl)cc34)[nH]c(=O)c2c1C | 3.06 µM | 10.8 µM

These compounds were tested on HCT-15 colon (assay: growth of human tumour cells (NCI), 48 h).

SMILES | GI50 | TGI
Fc1ccc(Nc2cc(-n3nnc4ccccc43)nc3ccccc23)cc1 | > 100 µM | > 100 µM
CC(C)CC1[C@@H](OCc2ccccc2)COS(=O)N1Cc1ccccc1 (some centres not stated) |  | > 100 µM
Nc1nc(Br)nc2c1ncn2C1CC(O)C(CO)O1 (configuration not stated) | > 63.9 µM | > 100 µM
Cc1sc2nc(NCCc3c[nH]c4ccc(Cl)cc34)[nH]c(=O)c2c1C | 1.52 µM | 11.2 µM

Each compound was assayed on SNB-75 CNS (assay: growth of human tumour cells (NCI), 48 h).

SMILES | GI50 | TGI
Fc1ccc(Nc2cc(-n3nnc4ccccc43)nc3ccccc23)cc1 | 14.1 µM | 45.8 µM
CC(C)CC1[C@@H](OCc2ccccc2)COS(=O)N1Cc1ccccc1 (some centres not stated) |  | 70.7 µM
Nc1nc(Br)nc2c1ncn2C1CC(O)C(CO)O1 (configuration not stated) | > 100 µM | > 100 µM
Cc1sc2nc(NCCc3c[nH]c4ccc(Cl)cc34)[nH]c(=O)c2c1C | 1.65 µM | 5.21 µM

What follows are compounds tested on KM12 colon (assay: growth of human tumour cells (NCI), 48 h).

SMILES | GI50 | TGI
Fc1ccc(Nc2cc(-n3nnc4ccccc43)nc3ccccc23)cc1 | > 100 µM | > 100 µM
CC(C)CC1[C@@H](OCc2ccccc2)COS(=O)N1Cc1ccccc1 (some centres not stated) |  | 96.2 µM
Nc1nc(Br)nc2c1ncn2C1CC(O)C(CO)O1 (configuration not stated) | > 100 µM | > 100 µM
